The values below come from paper PMC10114720.

Molecules are shown by their SMILES.

Data set [1] in a line: PDMS sheets cleaned by Soxhlet with ethyl acetate; batch shaking method with a mixture of all chemicals at several PDMS-mass to water-volume ratios and spiked levels; vials shaken on an orbital shaker at room temperature in the dark, sampled at two equilibration times; PDMS extracts and water quantified by LC-HRMS (Orbitrap); D from the slope of C_PDMS on C_w or their ratio; value is the mean over that pH's experiments (individual experiments in the SI's concentrations table), sd is the table's stdev. The conditions noted are these: PDMS (polydimethylsiloxane silicone sheet), phosphate buffer at three target pH values (the paper's methods).

The nature of data set [2]: neutral chemical: log K is the mean of log D over all measurements at the three pH values (D shown independent of pH, paired t-test); sd is the table's stddev. PDMS sheets cleaned by Soxhlet with ethyl acetate; batch shaking method with a mixture of all chemicals at several PDMS-mass to water-volume ratios and spiked levels; vials shaken on an orbital shaker at room temperature in the dark, sampled at two equilibration times; PDMS extracts and water quantified by LC-HRMS (Orbitrap); D from the slope of C_PDMS on C_w or their ratio. The conditions noted are these: PDMS (polydimethylsiloxane silicone sheet); phosphate buffer at three target pH values (the paper's methods).

Data set [3] in a line: monoprotic acid or base: log K of the neutral species extrapolated from the linear regression of D on the neutral fraction (from pKa and pH; the paper's eq. for monoprotic IOCs), the slope giving K of the neutral species; replicates column holds the table's 95% confidence limits. PDMS sheets cleaned by Soxhlet with ethyl acetate; batch shaking method with a mixture of all chemicals at several PDMS-mass to water-volume ratios and spiked levels; vials shaken on an orbital shaker at room temperature in the dark, sampled at two equilibration times; PDMS extracts and water quantified by LC-HRMS (Orbitrap); D from the slope of C_PDMS on C_w or their ratio. The note with it: PDMS (polydimethylsiloxane silicone sheet); phosphate buffer at three target pH values (the paper's methods).

For `O=P(c1ccccc1)(c1ccccc1)c1ccccc1`, the “log D PDMS/w (apparent distribution ratio at the stated pH)” value was 2.588 log units; D and K as the pape in data set [1] (pH 3); 2.511 log units; D and K as the pape in data set [1] (pH 7.4); 2.589 log units; D and K as the pape in data set [1] (pH 11.5). For the same molecule, the “log K PDMS/w (neutral species)” value in data set [2] was 2.562 log units; D and K as the pape.

On to `CCCCCCCCCCCC(=O)N(CCO)CCO`, for which the “log D PDMS/w (apparent distribution ratio at the stated pH)” value in data set [1] (pH 3) was 2.742 log units; D and K as the pape; in data set [1] (pH 7.4), 2.767 log units; D and K as the pape; in data set [1] (pH 11.5), 2.749 log units; D and K as the pape. Besides, the “log K PDMS/w (neutral species)” value in data set [2] was 2.753 log units; D and K as the pape.

Turning to `O=S(=O)(c1ccc(Cl)cc1)c1ccc(Cl)cc1`, the “log D PDMS/w (apparent distribution ratio at the stated pH)” value in data set [1] (pH 3) was 2.579 log units; D and K as the pape; in data set [1] (pH 7.4) it was 2.592 log units; D and K as the pape; in data set [1] (pH 11.5), 2.517 log units; D and K as the pape. In data set [2], the “log K PDMS/w (neutral species)” value is 2.563 log units; D and K as the pape.

On to `Cc1ccc(C=C2C(=O)C3(C)CCC2C3(C)C)cc1` (centres unmarked), for which the “log D PDMS/w (apparent distribution ratio at the stated pH)” value in data set [1] (pH 3) was 3.9 log units; D and K as the pape; in data set [1] (pH 7.4), 3.912 log units; D and K as the pape; in data set [1] (pH 11.5), 3.742 log units; D and K as the pape. For the same molecule, the “log K PDMS/w (neutral species)” value in data set [2] is 3.848 log units; D and K as the pape.

As for `CC(C)(C)Nc1nc(N)nc(Cl)n1`, the “log D PDMS/w (apparent distribution ratio at the stated pH)” value in data set [1] (pH 3) was 1.314 log units; D and K as the pape; in data set [1] (pH 7.4), 1.264 log units; D and K as the pape; in data set [1] (pH 11.5), 1.309 log units; D and K as the pape. Further, the “log K PDMS/w (neutral species)” value in data set [2] is 1.296 log units; D and K as the pape.

Turning to `Cc1cccc(C)c1N(Cn1cccn1)C(=O)CS(C)=O` (centres unmarked), the “log D PDMS/w (apparent distribution ratio at the stated pH)” value in data set [1] (pH 3) is 0.5745 log units; D and K as the pape; in data set [1] (pH 7.4) it was 0.5892 log units; D and K as the pape; in data set [1] (pH 11.5) it was 0.6192 log units; D and K as the pape. The “log K PDMS/w (neutral species)” value in data set [2] was 0.5949 log units; D and K as the pape.

As for `Cc1c(C(C)C)c(=O)n(-c2ccccc2)n1C`, the “log D PDMS/w (apparent distribution ratio at the stated pH)” value was 1.579 log units; D and K as the pape in data set [1] (pH 3); 1.554 log units; D and K as the pape in data set [1] (pH 7.4); 1.65 log units; D and K as the pape in data set [1] (pH 11.5). Besides, the “log K PDMS/w (neutral species)” value in data set [2] is 1.593 log units; D and K as the pape.

With `CNC(=O)/C(=N/OC)c1ccccc1COc1cc(C)ccc1C`, the “log D PDMS/w (apparent distribution ratio at the stated pH)” value in data set [1] (pH 3) is 2.432 log units; D and K as the pape; in data set [1] (pH 7.4) it was 2.361 log units; D and K as the pape; in data set [1] (pH 11.5), 2.397 log units; D and K as the pape. Further, the “log K PDMS/w (neutral species)” value in data set [2] is 2.396 log units; D and K as the pape.

Consider `NC(=O)Nc1ccc(Cl)c(Cl)c1`, for which the “log D PDMS/w (apparent distribution ratio at the stated pH)” value in data set [1] (pH 3) was 0.5975 log units; D and K as the pape; in data set [1] (pH 7.4), 0.6543 log units; D and K as the pape; in data set [1] (pH 11.5), 0.6515 log units; D and K as the pape. Further, the “log K PDMS/w (neutral species)” value in data set [2] is 0.6359 log units; D and K as the pape.

For `O=C1NCCN1Cc1ccc(Cl)nc1`, the “log D PDMS/w (apparent distribution ratio at the stated pH)” value in data set [1] (pH 7.4) was 1.277 log units; D and K as the pape; in data set [1] (pH 11.5), 1.451 log units; D and K as the pape. The “log K PDMS/w (neutral species)” value in data set [2] was 1.372 log units; D and K as the pape.

With `CCN(CC)C(=O)c1cccc(C)c1`, the “log D PDMS/w (apparent distribution ratio at the stated pH)” value in data set [1] (pH 3) was 1.611 log units; D and K as the pape; in data set [1] (pH 7.4), 1.592 log units; D and K as the pape; in data set [1] (pH 11.5), 1.633 log units; D and K as the pape. In addition, the “log K PDMS/w (neutral species)” value in data set [2] was 1.611 log units; D and K as the pape.

On to `CCCCOCCOCCOCc1cc2c(cc1CCC)OCO2`, for which the “log D PDMS/w (apparent distribution ratio at the stated pH)” value is 3.728 log units; D and K as the pape in data set [1] (pH 3); 3.685 log units; D and K as the pape in data set [1] (pH 7.4); 3.574 log units; D and K as the pape in data set [1] (pH 11.5). The “log K PDMS/w (neutral species)” value in data set [2] was 3.661 log units; D and K as the pape.

On to `N#Cc1nn(-c2c(Cl)cc(C(F)(F)F)cc2Cl)c(N)c1C(F)(F)F`, for which the “log D PDMS/w (apparent distribution ratio at the stated pH)” value in data set [1] (pH 3) is 1.946 log units; D and K as the pape; in data set [1] (pH 7.4), 1.927 log units; D and K as the pape; in data set [1] (pH 11.5) it was 1.883 log units; D and K as the pape. The “log K PDMS/w (neutral species)” value in data set [2] was 1.919 log units; D and K as the pape.

With `N#Cc1nn(-c2c(Cl)cc(C(F)(F)F)cc2Cl)c(N)c1S(=O)(=O)C(F)(F)F`, the “log D PDMS/w (apparent distribution ratio at the stated pH)” value in data set [1] (pH 3) is 2.417 log units; D and K as the pape; in data set [1] (pH 7.4), 2.376 log units; D and K as the pape; in data set [1] (pH 11.5), 2.192 log units; D and K as the pape. In addition, in data set [2], the “log K PDMS/w (neutral species)” value is 2.329 log units; D and K as the pape.

For the molecule `CC(C)(C)NC(=O)[C@H]1CC[C@H]2[C@@H]3CC[C@H]4NC(=O)C=C[C@]4(C)[C@H]3CC[C@]12C`, the “log D PDMS/w (apparent distribution ratio at the stated pH)” value was 2.64 log units; D and K as the pape in data set [1] (pH 3); 2.691 log units; D and K as the pape in data set [1] (pH 7.4); 2.582 log units; D and K as the pape in data set [1] (pH 11.5). The “log K PDMS/w (neutral species)” value in data set [2] was 2.638 log units; D and K as the pape.

`CN(C)C(=O)Nc1ccccc1`: the “log D PDMS/w (apparent distribution ratio at the stated pH)” value in data set [1] (pH 3) is 0.45 log units; D and K as the pape; in data set [1] (pH 7.4) it was 0.473 log units; D and K as the pape; in data set [1] (pH 11.5), 0.443 log units; D and K as the pape. Besides, the “log K PDMS/w (neutral species)” value in data set [2] was 0.4555 log units; D and K as the pape.

For the molecule `CC(C)(C#N)c1cc(Cn2cncn2)cc(C(C)(C)C#N)c1`, the “log D PDMS/w (apparent distribution ratio at the stated pH)” value is 2.047 log units; D and K as the pape in data set [1] (pH 3); 1.994 log units; D and K as the pape in data set [1] (pH 7.4); 2.025 log units; D and K as the pape in data set [1] (pH 11.5). Further, the “log K PDMS/w (neutral species)” value in data set [2] is 2.022 log units; D and K as the pape.

On to `N#CSCSc1nc2ccccc2s1`, for which the “log D PDMS/w (apparent distribution ratio at the stated pH)” value in data set [1] (pH 3) was 1.914 log units; D and K as the pape; in data set [1] (pH 7.4), 1.821 log units; D and K as the pape. Besides, the “log K PDMS/w (neutral species)” value in data set [2] is 1.857 log units; D and K as the pape; in data set [3], 1.892 log units; D and K as the pape.
